Assay results: PubChem BioAssay (NCI)
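Abbreviation: GI50, concentration required for 50% inhibition of growth. TGI denotes the concentration required for complete inhibition of growth.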

Assays:
Assay in all cases: inhibition of tumour cell growth, NCI panel, 384-well format; in the data active = GI50 below about 0.43 µM; inactive = the rest
[1] = test system: 786-0 renal
[2] = test system: A498 renal
[3] = test system: A549 NSCLC
[4] = test system: ACHN renal
[5] = test system: BT-549 breast
[6] = test system: CAKI-1 renal
[7] = test system: CCRF-CEM leukemia
[8] = test system: COLO 205 colon
[9] = test system: DU-145 prostate
[10] = test system: EKVX NSCLC
[11] = test system: HCC-2998 colon
[12] = test system: HCT-116 colon
[13] = test system: HCT-15 colon
[14] = test system: HL-60(TB) leukemia
[15] = test system: HOP-62 NSCLC
[16] = test system: HOP-92 NSCLC
[17] = test system: HS 578T breast
[18] = test system: HT29 colon
[19] = test system: IGROV1 ovarian
[20] = test system: K-562 leukemia
[21] = test system: KM12 colon
[22] = test system: LOX IMVI melanoma
[23] = test system: M14 melanoma
[24] = test system: MALME-3M melanoma
[25] = test system: MCF7 breast
[26] = test system: MDA-MB-231 breast
[27] = test system: MDA-MB-435 melanoma
[28] = test system: MDA-MB-468 breast
[29] = test system: MOLT-4 leukemia
[30] = test system: NCI-H226 lung
[31] = test system: NCI-H23 lung
[32] = test system: NCI-H322M lung
[33] = test system: NCI-H460 NSCLC
[34] = test system: NCI-H522 lung
[35] = test system: NCI/ADR-RES ovarian
[36] = test system: OVCAR-3 ovarian
[37] = test system: OVCAR-4 ovarian
[38] = test system: OVCAR-8 ovarian
[39] = test system: PC-3 prostate
[40] = test system: RPMI-8226 leukemia
[41] = test system: RXF 393 renal
[42] = test system: SF-268 CNS
[43] = test system: SF-295 CNS
[44] = test system: SF-539 CNS
[45] = test system: SK-MEL-28 melanoma
[46] = test system: SK-MEL-5 melanoma
[47] = test system: SK-OV-3 ovarian
[48] = test system: SN12C renal
[49] = test system: SNB-19 CNS
[50] = test system: SNB-75 CNS
[51] = test system: SR leukemia
[52] = test system: SW-620 colon
[53] = test system: T-47D breast
[54] = test system: TK-10 renal
[55] = test system: U251 glioblastoma
[56] = test system: UACC-257 melanoma
[57] = test system: UACC-62 melanoma
[58] = test system: UO-31 renal

C=CC(=O)N[C@@H]1CN(c2nc(Nc3cn(C)nc3OC)c3ncn(C)c3n2)C[C@H]1F
41.8 µM: TGI [23]
59.9 µM: TGI [50]
55.9 µM: TGI [17]
37.2 µM: TGI [36]
54.4 µM: TGI [18]
83.8 µM: TGI [41]
50 µM: TGI [11]
49.1 µM: TGI [9]
24.9 µM: TGI [10]
53.8 µM: TGI [8]
89.6 µM: TGI [44]
34.3 µM: TGI [27]
98.4 µM: TGI [26]
12.7 µM: TGI [32]
15.7 µM: TGI [34]
49.4 µM: TGI [46]
42.1 µM: TGI [33]
58.4 µM: TGI [38]
3.2 µM: TGI [51]
52 µM: TGI [20]
25.1 µM: TGI [14]
62.2 µM: TGI [30] | TGI [52]
60.2 µM: TGI [24]
> 100 µM: TGI [1] | TGI [2] | TGI [3] | TGI [4] | TGI [6] | TGI [12] | TGI [13] | TGI [15] | TGI [16] | TGI [21] | TGI [22] | TGI [35] | TGI [37] | TGI [39] | TGI [42] | TGI [43] | TGI [45] | TGI [47] | TGI [48] | TGI [49] | TGI [53] | TGI [55] | TGI [56] | TGI [57] | TGI [58]
73.7 µM: TGI [25]
30.8 µM: TGI [29]
active: GI50 [10] 0.338 µM | GI50 [28] 0.0291 µM | GI50 [32] 0.0896 µM | GI50 [34] 0.0389 µM | GI50 [54] 0.319 µM
29.2 µM: TGI [7]
0.114 µM: TGI [28]
30.3 µM: TGI [19]
39.1 µM: TGI [54]
35.6 µM: TGI [31]
36.7 µM: TGI [40]
inactive: GI50 [1] 37.3 µM | GI50 [2] 27.6 µM | GI50 [3] 21.4 µM | GI50 [4] 1.9 µM | GI50 [5] 25.4 µM | GI50 [6] 1.26 µM | GI50 [7] 15.5 µM | GI50 [8] 23 µM | GI50 [9] 13.8 µM | GI50 [11] 20.9 µM | GI50 [12] 33.4 µM | GI50 [13] 37.1 µM | GI50 [14] 12.3 µM | GI50 [15] 31.9 µM | GI50 [16] 23.4 µM | GI50 [17] 21.5 µM | GI50 [18] 20.5 µM | GI50 [19] 3.27 µM | GI50 [20] 23.2 µM | GI50 [21] 39.2 µM | GI50 [22] 34.6 µM | GI50 [23] 16 µM | GI50 [24] 17.5 µM | GI50 [25] 18 µM | GI50 [26] 24.3 µM | GI50 [27] 17.2 µM | GI50 [29] 16.6 µM | GI50 [30] 20.2 µM | GI50 [31] 16.2 µM | GI50 [33] 21.9 µM | GI50 [35] > 100 µM | GI50 [36] 12.3 µM | GI50 [37] 49.8 µM | GI50 [38] 19.5 µM | GI50 [39] 39.4 µM | GI50 [40] 18 µM | GI50 [41] 24.8 µM | GI50 [42] 29 µM | GI50 [43] 41.5 µM | GI50 [44] 29.9 µM | GI50 [45] 28.5 µM | GI50 [46] 19.2 µM | GI50 [47] 12.2 µM | GI50 [48] 34.2 µM | GI50 [49] 30 µM | GI50 [50] 22.9 µM | GI50 [51] 1.52 µM | GI50 [52] 24.4 µM | GI50 [53] 20.7 µM | GI50 [55] 33.2 µM | GI50 [56] 33.6 µM | GI50 [57] 23.1 µM | GI50 [58] 26.3 µM
70.9 µM: TGI [5]
